Measurements taken from publication PMC12063055 (Crystal Growth & Design, 2025).
≈ marks a conversion by molar mass, not a printed value. Like-named read-outs stand apart in the source and are kept apart here.

How the values were obtained:
[1] = Solubility studies, shake-flask method with HPLC quantification of HAL; assay type: physicochemical; conditions: for solubility in KCl pH 1.2: buffer KCl (0.2 M) pH 1.2, 24 h stirring at 25 °C; for solubility in KCl pH 1.2 / solubility in PBS pH 6.8: HAL concentration by HPLC at 248 nm; for improvement over HAL (solubility in KCl pH 1.2): buffer KCl pH 1.2, ratio to HAL solubility; for solubility in PBS pH 6.8: buffer PBS (0.2 M) pH 6.8, 24 h stirring at 25 °C; for improvement over HAL (solubility in PBS pH 6.8): buffer PBS pH 6.8, ratio to HAL solubility
Protocol: A Scharlau (Barcelona, Spain) 100 C18 chromatographic column (3 μm, 150 × 4.6 mm) was set at 25 °C and used for compound separation, using an isocratic elution method. The mobile phase was composed of a mixture of 90% acetonitrile and 10% water. The flow rate was 0.8 mL/min, and the injection volume was 30 μL. ChemStation software was used for data acquisition and analysis (Agilent Technologies, Santa Clara, CA, USA).

[2] = Acidity values (pKa) of the molecules, literature values; assay type: physicochemical; conditions: pKa1 of HAL minus pKa1 of coformer
[3] = high permeability but poor solubility in aqueous solution; ref [5],[6]; cited from earlier work
[4] = 25 °C, pH 1.2, aqueous buffer, thermodynamic from solid, read-out: solubility in KCl pH 1.2
[5] = 25 °C, pH 6.8, aqueous buffer, thermodynamic from solid, read-out: solubility in PBS pH 6.8

Compound: O=C(CCCN1CCC(O)(c2ccc(Cl)cc2)CC1)c1ccc(F)cc1.O=C(CCCN1CCC(O)(c2ccc(Cl)cc2)CC1)c1ccc(F)cc1.O=C(O)/C=C/C(=O)O.O=C(O)/C=C/C(=O)O [(HAL^+)2·(FU^2–)·(FU)]
- solubility at 24 h [1, 4]: 1060 ± 27 µg/mL
- solubility at 24 h [1, 5]: 33 ± 4 µg/mL
- solubility at 24 h ([1]; pH 1.2, read-out: solubility in KCl pH 1.2): ~1000 µg/mL

Compound: O=C(CCCN1CCC(O)(c2ccc(Cl)cc2)CC1)c1ccc(F)cc1.O=C(CCCN1CCC(O)(c2ccc(Cl)cc2)CC1)c1ccc(F)cc1.O=C(O)CCCCCCC(=O)O.O=C(O)CCCCCCC(=O)O [(HAL^+)2·(SU^2–)·(SU)]
- solubility in KCl pH 1.2 [1]: 1.074 ± 0.036 mg/mL
- improvement over HAL (solubility in KCl pH 1.2) [1]: 1.3×
- solubility in PBS pH 6.8 [1]: 0.017 ± 0.001 mg/mL
- improvement over HAL (solubility in PBS pH 6.8) [1]: 2.3×

Compound: O=C(CCCN1CCC(O)(c2ccc(Cl)cc2)CC1)c1ccc(F)cc1.O=C(CCCN1CCC(O)(c2ccc(Cl)cc2)CC1)c1ccc(F)cc1.O=C(O)c1ccc(C(=O)O)cc1.O=C(O)c1ccc(C(=O)O)cc1 [(HAL^+)2·(TR^2–)·(TR)]
- solubility in KCl pH 1.2 [1]: 0.678 ± 0.019 mg/mL
- solubility in PBS pH 6.8 [1]: 0.051 ± 0.002 mg/mL

Compound: O=C(O)CCCC(=O)O [Glutaric acid, glutaric acid]
- ΔpKa1 (difference of acidity of the coformer with HAL) [2]: 3.71

Compound: O=C(CCCN1CCC(O)(c2ccc(Cl)cc2)CC1)c1ccc(F)cc1 [HAL, Haloperidol, reference compound]
- Biopharmaceutics Classification System (BCS) class [3]: Class II
- solubility at 24 h ([1]; KCl buffer (0.2 M) pH 1.2, 25 °C, pH 1.2, aqueous buffer, thermodynamic from solid, read-out: solubility in KCl pH 1.2): 831 ± 42 µg/mL (≈ 2210 µM)
- solubility at 24 h ([1]; PBS buffer (0.2 M) pH 6.8, 25 °C, pH 6.8, aqueous buffer, thermodynamic from solid, read-out: solubility in PBS pH 6.8): 7 ± 1 µg/mL (≈ 18.6 µM)

Compound: O=C(CCCN1CCC(O)(c2ccc(Cl)cc2)CC1)c1ccc(F)cc1.O=C(O)CCCC(=O)O [HAL^+·GU^–]
- solubility in KCl pH 1.2 [1]: 1.021 ± 0.012 mg/mL
- solubility in PBS pH 6.8 [1]: 0.048 ± 0.001 mg/mL

Compound: O=C(CCCN1CCC(O)(c2ccc(Cl)cc2)CC1)c1ccc(F)cc1.O=C(O)/C=C\C(=O)O [HAL^+·ME^–]
- solubility at 24 h [1, 4]: 1400 ± 20 µg/mL
- solubility at 24 h [1, 5]: 74 ± 4 µg/mL
- solubility of the salt relative to the ionic cocrystal (HAL^+)2·(FU^2–)·(FU) ([1]; both phases with C4 coformers): twice

Compound: O=C(CCCN1CCC(O)(c2ccc(Cl)cc2)CC1)c1ccc(F)cc1.O=C(O)CC(=O)O [HAL^+·MO^–]
- solubility at 24 h [1, 4]: 525 ± 37 µg/mL
- solubility at 24 h [1, 5]: 119 ± 2 µg/mL

Compound: O=C(CCCN1CCC(O)(c2ccc(Cl)cc2)CC1)c1ccc(F)cc1.O=C(O)CCCCCC(=O)O [HAL^+·PI^–]
- solubility in KCl pH 1.2 [1]: 1.246 ± 0.035 mg/mL
- improvement over HAL (solubility in KCl pH 1.2) [1]: 1.5×
- solubility in PBS pH 6.8 [1]: 0.072 ± 0.001 mg/mL
- improvement over HAL (solubility in PBS pH 6.8) [1]: 9.7×

Compound: O=C(O)CCCCCC(=O)O [Pimelic acid, pimelic acid]
- ΔpKa1 (difference of acidity of the coformer with HAL) [2]: 3.55

Compound: O=C(O)CCCCCCC(=O)O [Suberic acid, suberic acid]
- ΔpKa1 (difference of acidity of the coformer with HAL) [2]: 3.52
